PubChem BioAssay (NCI)
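Values below derive from 48-hour exposures of cells grown in 96-well plates, with endpoints linearly interpolated between the two concentrations bracketing the appropriate inhibition level. Here, GI50 denotes the concentration required for 50% inhibition of growth. TGI: concentration producing complete growth inhibition.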

Key:
Assay in all cases: growth of human tumour cells (NCI), 48 h
NCI-H460 lung = system: NCI-H460 lung
DU-145 prostate = system: DU-145 prostate
HT29 colon = system: HT29 colon
TK-10 renal = system: TK-10 renal
UACC-257 melanoma = system: UACC-257 melanoma
CCRF-CEM leukemia = system: CCRF-CEM leukemia
SR leukemia = system: SR leukemia
U251 CNS = system: U251 CNS
SF-295 CNS = system: SF-295 CNS
NCI-H522 lung = system: NCI-H522 lung
OVCAR-8 ovarian = system: OVCAR-8 ovarian
LOX IMVI melanoma = system: LOX IMVI melanoma
HL-60(TB) leukemia = system: HL-60(TB) leukemia
UACC-62 melanoma = system: UACC-62 melanoma
OVCAR-5 ovarian = system: OVCAR-5 ovarian
MDA-MB-435 = system: MDA-MB-435
K-562 leukemia = system: K-562 leukemia
NCI-H23 lung = system: NCI-H23 lung
A549 NSCLC = system: A549 NSCLC
ACHN renal = system: ACHN renal
UO-31 renal = system: UO-31 renal
SK-MEL-2 melanoma = system: SK-MEL-2 melanoma
MDA-MB-231 breast = system: MDA-MB-231 breast
COLO 205 colon = system: COLO 205 colon
OVCAR-4 ovarian = system: OVCAR-4 ovarian
MOLT-4 leukemia = system: MOLT-4 leukemia
HOP-92 NSCLC = system: HOP-92 NSCLC
SK-MEL-28 melanoma = system: SK-MEL-28 melanoma
SK-OV-3 ovarian = system: SK-OV-3 ovarian
NCI-H226 lung = system: NCI-H226 lung
SF-268 CNS = system: SF-268 CNS
HCC-2998 colon = system: HCC-2998 colon
RXF 393 renal = system: RXF 393 renal
CAKI-1 renal = system: CAKI-1 renal
HCT-116 colon = system: HCT-116 colon
NCI/ADR-RES ovarian = system: NCI/ADR-RES ovarian
KM12 colon = system: KM12 colon
HCT-15 colon = system: HCT-15 colon
HOP-62 NSCLC = system: HOP-62 NSCLC
SW-620 colon = system: SW-620 colon
SNB-75 CNS = system: SNB-75 CNS
PC-3 prostate = system: PC-3 prostate
IGROV1 ovarian = system: IGROV1 ovarian
SK-MEL-5 melanoma = system: SK-MEL-5 melanoma
A498 renal = system: A498 renal
T-47D breast = system: T-47D breast
SF-539 CNS = system: SF-539 CNS
BT-549 breast = system: BT-549 breast
MALME-3M melanoma = system: MALME-3M melanoma
MCF7 breast = system: MCF7 breast
OVCAR-3 ovarian = system: OVCAR-3 ovarian
HS 578T breast = system: HS 578T breast
786-0 renal = system: 786-0 renal
RPMI-8226 leukemia = system: RPMI-8226 leukemia
SNB-19 CNS = system: SNB-19 CNS
SN12C renal = system: SN12C renal

In the case of `CCc1ccc(CNCC(O)c2ccccc2)cc1` (configuration not stated), the GI50 (NCI-H460 lung) is reported as 19.1 µM, the TGI (NCI-H460 lung) is reported as 42.8 µM and the GI50 (DU-145 prostate) is reported as 35.5 µM. The TGI (DU-145 prostate) was over 100 µM, the GI50 (HT29 colon) was 21.5 µM and the TGI (HT29 colon) was 68.4 µM. For the same molecule, the GI50 (TK-10 renal) was 34.2 µM, the TGI (TK-10 renal) was over 100 µM and the GI50 (UACC-257 melanoma) was 16.2 µM. It also gave a TGI (UACC-257 melanoma) of 35.7 µM, a GI50 (CCRF-CEM leukemia) of 34.5 µM and a TGI (CCRF-CEM leukemia) of over 100 µM. It also gave a GI50 (SR leukemia) of 13.5 µM, a TGI (SR leukemia) of 49.2 µM and a GI50 (U251 CNS) of 17.7 µM. For the same molecule, the TGI (U251 CNS) was 43.1 µM, the GI50 (SF-295 CNS) was 16.5 µM and the TGI (SF-295 CNS) was 35.5 µM. For the same molecule, the GI50 (NCI-H522 lung) was 24.7 µM, the TGI (NCI-H522 lung) was 70.5 µM and the GI50 (OVCAR-8 ovarian) was 26.5 µM. The TGI (OVCAR-8 ovarian) was over 100 µM, the GI50 (LOX IMVI melanoma) was 16.4 µM and the TGI (LOX IMVI melanoma) was 34 µM. For the same molecule, the GI50 (HL-60(TB) leukemia) was 23.4 µM, the TGI (HL-60(TB) leukemia) was 68.6 µM and the GI50 (UACC-62 melanoma) was 16.5 µM. It also gave a TGI (UACC-62 melanoma) of 32.4 µM, a GI50 (OVCAR-5 ovarian) of 18.1 µM and a TGI (OVCAR-5 ovarian) of 44.2 µM. For the same molecule, the GI50 (MDA-MB-435) was 6.93 µM, the TGI (MDA-MB-435) was 20.1 µM and the GI50 (K-562 leukemia) was 7.85 µM. For the same molecule, the TGI (K-562 leukemia) was 62.6 µM, the GI50 (NCI-H23 lung) was 49.2 µM and the TGI (NCI-H23 lung) was over 100 µM. It also gave a GI50 (A549 NSCLC) of 39.2 µM, a TGI (A549 NSCLC) of over 100 µM and a GI50 (ACHN renal) of 31.4 µM. The TGI (ACHN renal) was over 100 µM, the GI50 (UO-31 renal) was 18.9 µM and the TGI (UO-31 renal) was over 100 µM. It also gave a GI50 (SK-MEL-2 melanoma) of 17.2 µM, a TGI (SK-MEL-2 melanoma) of 33.7 µM and a GI50 (MDA-MB-231 breast) of 13.2 µM. The TGI (MDA-MB-231 breast) was 35.7 µM, the GI50 (COLO 205 colon) was 16.6 µM and the TGI (COLO 205 colon) was 33 µM. For the same molecule, the GI50 (OVCAR-4 ovarian) was 29.6 µM, the TGI (OVCAR-4 ovarian) was over 100 µM and the GI50 (MOLT-4 leukemia) was 21.8 µM. For the same molecule, the TGI (MOLT-4 leukemia) was 54.5 µM, the GI50 (HOP-92 NSCLC) was 6.14 µM and the TGI (HOP-92 NSCLC) was 38.1 µM. The GI50 (SK-MEL-28 melanoma) was 14.5 µM, the TGI (SK-MEL-28 melanoma) was 28.7 µM and the GI50 (SK-OV-3 ovarian) was 63 µM. The TGI (SK-OV-3 ovarian) was over 100 µM, the GI50 (NCI-H226 lung) was over 100 µM and the TGI (NCI-H226 lung) was over 100 µM. For the same molecule, the GI50 (SF-268 CNS) was 33.6 µM, the TGI (SF-268 CNS) was over 100 µM and the GI50 (HCC-2998 colon) was 17.9 µM. It also gave a TGI (HCC-2998 colon) of 36.8 µM, a GI50 (RXF 393 renal) of 14.3 µM and a TGI (RXF 393 renal) of 45.5 µM. The GI50 (CAKI-1 renal) was 25.4 µM, the TGI (CAKI-1 renal) was over 100 µM and the GI50 (HCT-116 colon) was 28.4 µM. For the same molecule, the TGI (HCT-116 colon) was over 100 µM, the GI50 (NCI/ADR-RES ovarian) was 20.8 µM and the TGI (NCI/ADR-RES ovarian) was 71.2 µM. It also gave a GI50 (KM12 colon) of 15 µM, a TGI (KM12 colon) of 32.1 µM and a GI50 (HCT-15 colon) of 17.3 µM. The TGI (HCT-15 colon) was 53 µM, the GI50 (HOP-62 NSCLC) was 37.1 µM and the TGI (HOP-62 NSCLC) was over 100 µM. For the same molecule, the GI50 (SW-620 colon) was 18.5 µM, the TGI (SW-620 colon) was 42.9 µM and the GI50 (SNB-75 CNS) was 5.39 µM. For the same molecule, the TGI (SNB-75 CNS) was 42.2 µM, the GI50 (PC-3 prostate) was 34.8 µM and the TGI (PC-3 prostate) was over 100 µM. The GI50 (IGROV1 ovarian) was 47.8 µM, the TGI (IGROV1 ovarian) was over 100 µM and the GI50 (SK-MEL-5 melanoma) was 15.7 µM. It also gave a TGI (SK-MEL-5 melanoma) of 29.2 µM, a GI50 (A498 renal) of 5.14 µM and a TGI (A498 renal) of 47.2 µM. For the same molecule, the GI50 (T-47D breast) was 20.2 µM, the TGI (T-47D breast) was 51.9 µM and the GI50 (SF-539 CNS) was 16.5 µM. For the same molecule, the TGI (SF-539 CNS) was 39.5 µM, the GI50 (BT-549 breast) was 8.3 µM and the TGI (BT-549 breast) was over 100 µM. The GI50 (MALME-3M melanoma) was 14.8 µM, the TGI (MALME-3M melanoma) was 31.2 µM and the GI50 (MCF7 breast) was 15.5 µM. For the same molecule, the TGI (MCF7 breast) was 34.2 µM, the GI50 (OVCAR-3 ovarian) was 25.2 µM and the TGI (OVCAR-3 ovarian) was 79.2 µM. The GI50 (HS 578T breast) was 28.1 µM, the TGI (HS 578T breast) was over 100 µM and the GI50 (786-0 renal) was 20.1 µM. The TGI (786-0 renal) was 53.8 µM, the GI50 (RPMI-8226 leukemia) was 22.7 µM and the TGI (RPMI-8226 leukemia) was 53.3 µM. It also gave a GI50 (SNB-19 CNS) of 46.9 µM, a TGI (SNB-19 CNS) of over 100 µM and a GI50 (SN12C renal) of 33.5 µM. For the same molecule, the TGI (SN12C renal) was over 100 µM.
